Data: patent EP4147700A1, “N-(4-(AZAINDAZOL-6-YL)-PHENYL)-SULFONAMIDES FOR USE IN THE TREATMENT OF SICKLE CELL DISEASE” (LQT Therapeutics Inc., priority 2021, dated 2023)

What was measured:
human CD34+ cells = conditions: for F-cell (HbF+) frequency in enucleated GlyA+ cells / fold change in fetal hemoglobin expression: 14 days of differentiation; for F-cell (HbF+) frequency in enucleated GlyA+ cells: compared to control (DMSO) (FIG. 3A); for fold change in fetal hemoglobin expression: human CD34+ cells, compared to control (Vehicle as DMSO) (FIG. 3B)
Experimental: Mobilized CD34+ Human Stem/Progenitor Cells (HSPC) from healthy individuals were cultured for 3 days in a maintenance media consisting of X-VIVO 10 (VWR), 100 U/mL penicillin-streptomycin (ThermoFisher), 2mM L-glutamine (Fisher Scientific), 100 ng/mL Recombinant Human Stem Cell Factor (SCF), 100 ng/mL Recombinant Human Thrombopoietin (TPO) and 100 ng/mL Recombinant Human Flt-3 Ligand (Flt-3L) (all three from ThermoFisher). Cells were differentiated into erythroid cells using a three-step differentiation protocol developed by the Luc Douay group (Giarratana et al. 2005). In brief, CD34+ cells were cultured for 7 days in Step 1 media, consisting of Iscove's modified Dulbecco's medium (IMDM) (ThermoFisher) supplemented with 1X GlutaMAX, 100 U/mL penicillin-streptomycin (ThermoFisher), 5% human AB+plasma, 330 ug/mL human holo-transferrin, 10 ug/mL human insulin, 2 U/mL heparin, 1 uM/mL hydrocortisone (Sigma-Aldrich), 3 U/mL recombinant human erythropoietin (EPO) (ThermoFisher), 100 ng/mL SCF (ThermoFisher) and 5 ng/mL interleukin 3 (IL-3) (SigmaAldrich). On day 7, cells were transferred to step 2 media, a step 1 media without hydrocortisone and IL-3 and cultured for 3-4 days. Then cells were cultured for 8-9 days in step 3 media, a step 2 media without SCF. […] To determine the percentage of HbF-positive cells (F-cells), differentiated cells were fixed and permeabilized using a fixation kit (ThermoFisher). Cells were stained with PE-Cy7-conjugated anti-CD235 or PE-conjugated anti-CD71 antibodies. HbF levels were detected using Allophycocyanin (APC)-conjugated anti-HbF antibody (ThermoFisher). The acquisition of stained cells was performed on BD FACSCanto™ and the analysis was run using FlowJo™ Software.
After 14 days of differentiation, cells were fixed and stained with CD235a, CD71 and fetal hemoglobin antibodies for flowcytometry analysis.

[1] = test system: CD34+ cells from patients with sickle cell disease; conditions: for F-cell (HbF+) frequency in enucleated GlyA+ cells: CD34+ cells from patients with sickle cell disease, compared to control (DMSO) (FIG. 4A)
From the text: To measure the effect of Compound 346 on fetal hemoglobin induction in CD34+ cells from patients with sickle cell disease, circulating CD34+ progenitor cells were isolated from total blood obtained from sickle cell patients, by performing a positive selection for CD34+ cells with magnetic beads (Miltenyi Biotec). Purified CD34+ cells were differentiated for 14 days. After differentiation, cells were fixed and stained with CD235a, CD71 and fetal hemoglobin antibodies for flowcytometry analysis.

FOXO3 = experiment: SGK1 downstream pathway: Western blot of FOXO3 phosphorylation at Serine 315 in CD34+ cells; format: cell-based, human; conditions: CD34+ cells from a healthy donor, day 11 of differentiation, 1-hour time point, densitometry (FIG. 5)
Experimental: (§1) To verify SGK1 target engagement by Compound 346, CD34+ cells from a healthy donor were exposed to Compound 346 at the indicated dose (µM), harvested and lysed at the indicated time points. Phosphorylation of SGK1 at threonine 256 (Thr256) was assessed by Western blot using antibody anti-pSGK1 (Thr256) (Thermofisher) and anti-SGK1 (Cell Signaling). Human CD34+ cells, cells were collected on Day 11 of differentiation then exposed to Compound 346. According to the time course, cells were collected and lysed using RIPA buffer mixed with a phosphatase and protease inhibitors cocktail (Thermofisher). Sample protein concentrations were measured with the Pierce […] (ThermoFisher). The α-tubulin antibody (Cell Signaling) served as an internal control. Immunoreactive proteins were visualized by using an ECL® (enhanced chemiluminescence) detection system (BioRad). Optical density was measured with ImageJ software (National Institutes of Health, Bethesda, MD) and the ratio of phospho-SGK1 to total SGK1 was calculated, normalized on α-tubulin, and plotted based on the densitometry measurements. […] Furthermore, SGK1 downstream pathway activation was verified by measuring phosphorylation of FOXO3 at Serine 315, a direct target of activated SGK1. Quantification of FOXO3 activation was assessed by Western Blot using antibodies anti-pFOXO3 (Ser315) and anti-FOXO3 (Cell Signaling). […]

SGK1 = target: T1, SGK1 (Homo sapiens, UniProt O00141); experiment: SGK1 target engagement: Western blot of SGK1 phosphorylation at Thr256 in CD34+ cells; format: cell-based; conditions: CD34+ cells from a healthy donor, day 11 of differentiation, 1h after exposure (FIG. 5)
T1 construct: endogenous in cells; host or cells: Mobilized human CD34+ HSPC from a healthy donor, day 11 of erythroid differentiation
T1 sequence (O00141 1-431): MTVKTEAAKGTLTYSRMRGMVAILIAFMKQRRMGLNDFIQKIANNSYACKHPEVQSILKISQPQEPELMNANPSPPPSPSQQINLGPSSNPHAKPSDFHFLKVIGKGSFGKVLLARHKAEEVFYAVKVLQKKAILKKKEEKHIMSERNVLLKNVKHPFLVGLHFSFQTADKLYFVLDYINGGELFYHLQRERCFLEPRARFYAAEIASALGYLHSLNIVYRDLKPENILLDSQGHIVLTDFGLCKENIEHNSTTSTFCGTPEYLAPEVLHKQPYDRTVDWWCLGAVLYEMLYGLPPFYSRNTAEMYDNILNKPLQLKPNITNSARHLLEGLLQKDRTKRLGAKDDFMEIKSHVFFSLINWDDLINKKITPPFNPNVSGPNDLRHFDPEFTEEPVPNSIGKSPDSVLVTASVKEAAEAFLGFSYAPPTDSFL
Experimental: as §1

sickle erythroid cells = experiment: Sickling assay under hypoxia (ImageStream flow cytometry) of 21-day differentiated erythroid cells; format: cell-based, human; conditions: cells derived from CD34+ cells of sickle patients, 21 days of differentiation, 4 hours at 2% oxygen, compared to vehicle, p < 0.01 (FIG. 6)
Experimental: To evaluate the effect of Compound 346 in sickle erythroid cells sickling, a sickling assay was conducted. […] Purified CD34+ cells were differentiated for 21 days. At the end of the differentiation, cells were incubated for 4 hours at 2% of oxygen in Hemox Buffer (Fisher Scientific) supplemented with 10mM Glutamine (Gibco) and 0.5% BSA (Sigma Aldrich). After exposure to hypoxia, cells were fixed with 25% of glutaraldehyde (Sigma Aldrich) and transferred to tubes for flowcytometry analysis, using a Amnis® ImageStream® flow cytometer to assess abnormal shaped cells. Cells were determined using RMS of brightfield image, and single cells using Area vs Aspect Ratio of brightfield image, and live cells were identified using a Live Dead NIR stain. Single living cells were analyzed using the following masking of the brightfield image: Skeleton (M1, Ch1, Thin), Object (M1, Ch1, Tight). Finally, the sickling factor was calculated using the following feature: Length_Skeleton (M1, CH1, Thin)/Width_(M1, Ch1, Tight). Cells with a sickle factor feature of 1.4 or higher were sickled. Cells with a sickle factor feature less than 1.4 were not sickled.

[2] = CD34+ HSPC from healthy individuals

SMILES | F-cell (HbF+) frequency in enucleated GlyA+ cells (human CD34+ cells; [2]) | fold change in fetal hemoglobin expression (human CD34+ cells) | F-cell (HbF+) frequency in enucleated GlyA+ cells [1] | phosphorylation of FOXO3 at Serine 315 (FOXO3) | p-SGK1 (Thr256), ratio of phospho-SGK1 to total SGK1 (SGK1) | increase of HbF+ cells (HbF+ fold change to control) (human CD34+ cells; CD34+ HSPC from healthy individuals, 21 days of differentiation, compared to DMSO (FIG. 2B)) | frequency of F-cells (HbF+) (human CD34+ cells; CD34+ HSPC from healthy individuals, 21 days of differentiation, compared to vehicle (DMSO) (FIG. 2A)) | HbF+ fold change to control ([1]; CD34+ cells from sickle cell patients, 14 days of differentiation, compared to control (Vehicle as DMSO) (FIG. 4B)) | sickling of erythroid cells induced by hypoxia (sickle erythroid cells)
NC(=O)NO [Hydroxyurea, hydroxyurea, reference compound] | increases | 1,5 fold | increase | – | – | – | – | – | –
Cc1n[nH]c2nc(-c3ccc(NS(=O)(=O)c4cc(Cl)ccc4F)cc3)nc(OC3CCN(C(C)C)CC3)c12 [Compound 346] | increases | 1,5 fold | increasing | decrease | decrease | about 1.5 fold | increased | 1.5 fold | significantly protected from sickling
